Results: patent publication US11109593B2, “Isoxazolin-5-one derivative and herbicide containing same as active ingredient” (HOKKO CHEMICAL INDUSTRY CO., LTD., priority 2017, dated 2021)

Key:
Type in all cases: in vivo
[1] = test system: Scirpus juncoides; assay: Test Example 1: herbicidal effect test by treatment of rice paddy soil (immediately after seeding); conditions: 120 g/10a active ingredient, dry weight vs untreated area, 14 days after treatment
Summary of the method: (§1)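 Paddy soil in pots with compound fertilizer, puddled; 30 seeds per species sown at 0–1 cm, flooded ~3 cm, greenhouse. Water-diluted emulsions dropped onto water immediately after seeding at 120 g active ingredient per 10 ares, duplicate. Herbicidal rate (%) from plant dry weight versus untreated, 14 days after treatment.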

[2] = test system: broad leaf weeds (Lindernia pyxidaria and Monochoria vaginalis); assay: as above; conditions: 120 g/10a active ingredient, dry weight vs untreated area, 14 days after treatment
Summary of the method: as §1

[3] = test system: Echinochloa crus-galli; assay: as above; conditions: 120 g/10a active ingredient, dry weight vs untreated area, 14 days after treatment
Summary of the method: as §1

[4] = test system: Scirpus juncoides; assay: Test Example 2: herbicidal effect test by treatment during growing period in paddy rice cultivation (seven days after seeding); conditions: 120 g/10a active ingredient, assessed 14 days after treatment, dry weight vs untreated area
Summary of the method: (§2)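 Sow 30 seeds per species (0–1 cm) into puddled, fertilized paddy soil; keep flooded ~3 cm in greenhouse. Day 7 after seeding: drop water-diluted emulsion, 120 g a.i./10 ares. Harvest 14 d post-treatment; compare dry weight with untreated pots (duplicate).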

[5] = test system: broad leaf weeds (Lindernia pyxidaria and Monochoria vaginalis); assay: as above; conditions: 120 g/10a active ingredient, assessed 14 days after treatment, dry weight vs untreated area
Summary of the method: as §2

[6] = test system: Echinochloa crus-galli; assay: as above; conditions: 120 g/10a active ingredient, assessed 14 days after treatment, dry weight vs untreated area
Summary of the method: as §2

SMILES: Cc1c(Cc2ccccc2N(S(=O)(=O)C(F)(F)F)S(=O)(=O)C(F)(F)F)c(=O)on1Cc1ccc(C#N)cc1 [Compound 1-1017]
- Herbicidal rate (%) Scirpus juncoides [1]: 90%
- Herbicidal rate (%) Lindernia pyxidaria [2]: 60%
- Herbicidal rate (%) Monochoria vaginalis [2]: 90%
- Herbicidal rate (%) Echinochloa crus-galli [3]: 40%
- Herbicidal rate (%) Scirpus juncoides [4]: 80%
- Herbicidal rate (%) Lindernia pyxidaria [5]: 80%
- Herbicidal rate (%) Monochoria vaginalis [5]: 80%
- Herbicidal rate (%) Echinochloa crus-galli [6]: 0%

SMILES: Cc1ccc(Cn2oc(=O)c(Cc3ccccc3N(S(=O)(=O)C(F)(F)F)S(=O)(=O)C(F)(F)F)c2C)cc1 [Compound 1-1018]
- Herbicidal rate (%) Scirpus juncoides [1]: 90%
- Herbicidal rate (%) Lindernia pyxidaria [2]: 100%
- Herbicidal rate (%) Monochoria vaginalis [2]: 90%
- Herbicidal rate (%) Echinochloa crus-galli [3]: 90%
- Herbicidal rate (%) Scirpus juncoides [4]: 80%
- Herbicidal rate (%) Lindernia pyxidaria [5]: 80%
- Herbicidal rate (%) Monochoria vaginalis [5]: 80%
- Herbicidal rate (%) Echinochloa crus-galli [6]: 40%

SMILES: Cc1c(Cc2ccccc2N(S(=O)(=O)C(F)(F)F)S(=O)(=O)C(F)(F)F)c(=O)on1Cc1ccc(C(C)(C)C)cc1 [Compound 1-1019]
- Herbicidal rate (%) Scirpus juncoides [1]: 40%
- Herbicidal rate (%) Lindernia pyxidaria [2]: 60%
- Herbicidal rate (%) Monochoria vaginalis [2]: 60%
- Herbicidal rate (%) Echinochloa crus-galli [3]: 40%
- Herbicidal rate (%) Scirpus juncoides [4]: 0%
- Herbicidal rate (%) Lindernia pyxidaria [5]: 40%
- Herbicidal rate (%) Monochoria vaginalis [5]: 40%
- Herbicidal rate (%) Echinochloa crus-galli [6]: 0%

SMILES: Cc1c(Cc2ccccc2N(S(=O)(=O)C(F)(F)F)S(=O)(=O)C(F)(F)F)c(=O)on1Cc1cccc(C(F)(F)F)c1 [Compound 1-1020]
- Herbicidal rate (%) Scirpus juncoides [1]: 40%
- Herbicidal rate (%) Lindernia pyxidaria [2]: 80%
- Herbicidal rate (%) Monochoria vaginalis [2]: 40%
- Herbicidal rate (%) Echinochloa crus-galli [3]: 50%
- Herbicidal rate (%) Scirpus juncoides [4]: 40%
- Herbicidal rate (%) Lindernia pyxidaria [5]: 40%
- Herbicidal rate (%) Monochoria vaginalis [5]: 40%
- Herbicidal rate (%) Echinochloa crus-galli [6]: 60%

SMILES: COc1ccc(Cn2oc(=O)c(Cc3ccccc3N(S(=O)(=O)C(F)(F)F)S(=O)(=O)C(F)(F)F)c2C)cc1 [Compound 1-1022]
- Herbicidal rate (%) Scirpus juncoides [1]: 90%
- Herbicidal rate (%) Lindernia pyxidaria [2]: 100%
- Herbicidal rate (%) Monochoria vaginalis [2]: 100%
- Herbicidal rate (%) Echinochloa crus-galli [3]: 90%
- Herbicidal rate (%) Scirpus juncoides [4]: 90%
- Herbicidal rate (%) Lindernia pyxidaria [5]: 100%
- Herbicidal rate (%) Monochoria vaginalis [5]: 100%
- Herbicidal rate (%) Echinochloa crus-galli [6]: 70%

SMILES: Cc1c(Cc2ccccc2N(S(=O)(=O)C(F)(F)F)S(=O)(=O)C(F)(F)F)c(=O)on1Cc1ccc(OC(F)(F)F)cc1 [Compound 1-1023]
- Herbicidal rate (%) Scirpus juncoides [1]: 50%
- Herbicidal rate (%) Lindernia pyxidaria [2]: 40%
- Herbicidal rate (%) Monochoria vaginalis [2]: 50%
- Herbicidal rate (%) Echinochloa crus-galli [3]: 50%
- Herbicidal rate (%) Scirpus juncoides [4]: 40%
- Herbicidal rate (%) Lindernia pyxidaria [5]: 40%
- Herbicidal rate (%) Monochoria vaginalis [5]: 40%
- Herbicidal rate (%) Echinochloa crus-galli [6]: 40%

SMILES: Cc1c(Cc2ccccc2N(S(=O)(=O)C(F)(F)F)S(=O)(=O)C(F)(F)F)c(=O)on1Cc1ccc(F)cc1F [Compound 1-1026]
- Herbicidal rate (%) Scirpus juncoides [1]: 90%
- Herbicidal rate (%) Lindernia pyxidaria [2]: 100%
- Herbicidal rate (%) Monochoria vaginalis [2]: 100%
- Herbicidal rate (%) Echinochloa crus-galli [3]: 100%
- Herbicidal rate (%) Scirpus juncoides [4]: 80%
- Herbicidal rate (%) Lindernia pyxidaria [5]: 100%
- Herbicidal rate (%) Monochoria vaginalis [5]: 90%
- Herbicidal rate (%) Echinochloa crus-galli [6]: 60%

SMILES: Cc1c(Cc2ccccc2N(S(=O)(=O)C(F)(F)F)S(=O)(=O)C(F)(F)F)c(=O)on1Cc1ccc(F)c(F)c1 [Compound 1-1027]
- Herbicidal rate (%) Scirpus juncoides [1]: 80%
- Herbicidal rate (%) Lindernia pyxidaria [2]: 100%
- Herbicidal rate (%) Monochoria vaginalis [2]: 100%
- Herbicidal rate (%) Echinochloa crus-galli [3]: 90%
- Herbicidal rate (%) Scirpus juncoides [4]: 40%
- Herbicidal rate (%) Lindernia pyxidaria [5]: 40%
- Herbicidal rate (%) Monochoria vaginalis [5]: 40%
- Herbicidal rate (%) Echinochloa crus-galli [6]: 40%

SMILES: Cc1c(Cc2ccccc2N(S(=O)(=O)C(F)(F)F)S(=O)(=O)C(F)(F)F)c(=O)on1Cc1ccc(F)cc1Cl [Compound 1-1028]
- Herbicidal rate (%) Scirpus juncoides [1]: 40%
- Herbicidal rate (%) Lindernia pyxidaria [2]: 80%
- Herbicidal rate (%) Monochoria vaginalis [2]: 90%
- Herbicidal rate (%) Echinochloa crus-galli [3]: 80%
- Herbicidal rate (%) Scirpus juncoides [4]: 0%
- Herbicidal rate (%) Lindernia pyxidaria [5]: 40%
- Herbicidal rate (%) Monochoria vaginalis [5]: 40%
- Herbicidal rate (%) Echinochloa crus-galli [6]: 0%

SMILES: Cc1c(Cc2ccccc2N(S(=O)(=O)C(F)(F)F)S(=O)(=O)C(F)(F)F)c(=O)on1C(C)c1ccc(F)cc1 (stereo not drawn) [Compound 1-1031]
- Herbicidal rate (%) Scirpus juncoides [1]: 100%
- Herbicidal rate (%) Lindernia pyxidaria [2]: 100%
- Herbicidal rate (%) Monochoria vaginalis [2]: 100%
- Herbicidal rate (%) Echinochloa crus-galli [3]: 100%
- Herbicidal rate (%) Scirpus juncoides [4]: 100%
- Herbicidal rate (%) Lindernia pyxidaria [5]: 100%
- Herbicidal rate (%) Monochoria vaginalis [5]: 100%
- Herbicidal rate (%) Echinochloa crus-galli [6]: 90%

SMILES: Cc1c(Cc2ccccc2N(S(=O)(=O)C(F)(F)F)S(=O)(=O)C(F)(F)F)c(=O)on1C(C)c1ccccc1Cl (stereo not drawn) [Compound 1-1032]
- Herbicidal rate (%) Scirpus juncoides [1]: 90%
- Herbicidal rate (%) Lindernia pyxidaria [2]: 90%
- Herbicidal rate (%) Monochoria vaginalis [2]: 90%
- Herbicidal rate (%) Echinochloa crus-galli [3]: 80%
- Herbicidal rate (%) Scirpus juncoides [4]: 40%
- Herbicidal rate (%) Lindernia pyxidaria [5]: 40%
- Herbicidal rate (%) Monochoria vaginalis [5]: 40%
- Herbicidal rate (%) Echinochloa crus-galli [6]: 40%

SMILES: Cc1c(Cc2ccccc2N(S(=O)(=O)C(F)(F)F)S(=O)(=O)C(F)(F)F)c(=O)on1C(C)c1cccc(Cl)c1 (stereo not drawn) [Compound 1-1033]
- Herbicidal rate (%) Scirpus juncoides [1]: 90%
- Herbicidal rate (%) Lindernia pyxidaria [2]: 100%
- Herbicidal rate (%) Monochoria vaginalis [2]: 100%
- Herbicidal rate (%) Echinochloa crus-galli [3]: 90%
- Herbicidal rate (%) Scirpus juncoides [4]: 80%
- Herbicidal rate (%) Lindernia pyxidaria [5]: 80%
- Herbicidal rate (%) Monochoria vaginalis [5]: 80%
- Herbicidal rate (%) Echinochloa crus-galli [6]: 70%

SMILES: Cc1c(Cc2ccccc2N(S(=O)(=O)C(F)(F)F)S(=O)(=O)C(F)(F)F)c(=O)on1C(C)c1ccc(Cl)cc1 (stereo not drawn) [Compound 1-1034]
- Herbicidal rate (%) Scirpus juncoides [1]: 90%
- Herbicidal rate (%) Lindernia pyxidaria [2]: 100%
- Herbicidal rate (%) Monochoria vaginalis [2]: 100%
- Herbicidal rate (%) Echinochloa crus-galli [3]: 100%
- Herbicidal rate (%) Scirpus juncoides [4]: 90%
- Herbicidal rate (%) Lindernia pyxidaria [5]: 80%
- Herbicidal rate (%) Monochoria vaginalis [5]: 80%
- Herbicidal rate (%) Echinochloa crus-galli [6]: 90%

SMILES: Cc1c(Cc2ccccc2N(S(=O)(=O)C(F)(F)F)S(=O)(=O)C(F)(F)F)c(=O)on1C(C)c1ccc(OC(F)(F)F)cc1 (stereo not drawn) [Compound 1-1036]
- Herbicidal rate (%) Scirpus juncoides [1]: 70%
- Herbicidal rate (%) Lindernia pyxidaria [2]: 60%
- Herbicidal rate (%) Monochoria vaginalis [2]: 60%
- Herbicidal rate (%) Echinochloa crus-galli [3]: 70%
- Herbicidal rate (%) Scirpus juncoides [4]: 60%
- Herbicidal rate (%) Lindernia pyxidaria [5]: 60%
- Herbicidal rate (%) Monochoria vaginalis [5]: 60%
- Herbicidal rate (%) Echinochloa crus-galli [6]: 40%

SMILES: Cc1c(Cc2ccccc2N(S(=O)(=O)C(F)(F)F)S(=O)(=O)C(F)(F)F)c(=O)on1C(C)c1ccc(F)cc1F (stereo not drawn) [Compound 1-1037]
- Herbicidal rate (%) Scirpus juncoides [1]: 90%
- Herbicidal rate (%) Lindernia pyxidaria [2]: 70%
- Herbicidal rate (%) Monochoria vaginalis [2]: 60%
- Herbicidal rate (%) Echinochloa crus-galli [3]: 90%
- Herbicidal rate (%) Scirpus juncoides [4]: 60%
- Herbicidal rate (%) Lindernia pyxidaria [5]: 60%
- Herbicidal rate (%) Monochoria vaginalis [5]: 50%
- Herbicidal rate (%) Echinochloa crus-galli [6]: 90%
